Laboratory results as given in paper PMC5563081, “Modulating Protein-Protein Interactions of the Mitotic Polo-like Kinases to Target Mutant KRAS” (Cell Chemical Biology, 2017).

Molecular target: hERG ion channel (Homo sapiens, UniProt Q12809)
Test: hERG ion channel activity

hERG ion channel, sequence (Q12809 whole entry): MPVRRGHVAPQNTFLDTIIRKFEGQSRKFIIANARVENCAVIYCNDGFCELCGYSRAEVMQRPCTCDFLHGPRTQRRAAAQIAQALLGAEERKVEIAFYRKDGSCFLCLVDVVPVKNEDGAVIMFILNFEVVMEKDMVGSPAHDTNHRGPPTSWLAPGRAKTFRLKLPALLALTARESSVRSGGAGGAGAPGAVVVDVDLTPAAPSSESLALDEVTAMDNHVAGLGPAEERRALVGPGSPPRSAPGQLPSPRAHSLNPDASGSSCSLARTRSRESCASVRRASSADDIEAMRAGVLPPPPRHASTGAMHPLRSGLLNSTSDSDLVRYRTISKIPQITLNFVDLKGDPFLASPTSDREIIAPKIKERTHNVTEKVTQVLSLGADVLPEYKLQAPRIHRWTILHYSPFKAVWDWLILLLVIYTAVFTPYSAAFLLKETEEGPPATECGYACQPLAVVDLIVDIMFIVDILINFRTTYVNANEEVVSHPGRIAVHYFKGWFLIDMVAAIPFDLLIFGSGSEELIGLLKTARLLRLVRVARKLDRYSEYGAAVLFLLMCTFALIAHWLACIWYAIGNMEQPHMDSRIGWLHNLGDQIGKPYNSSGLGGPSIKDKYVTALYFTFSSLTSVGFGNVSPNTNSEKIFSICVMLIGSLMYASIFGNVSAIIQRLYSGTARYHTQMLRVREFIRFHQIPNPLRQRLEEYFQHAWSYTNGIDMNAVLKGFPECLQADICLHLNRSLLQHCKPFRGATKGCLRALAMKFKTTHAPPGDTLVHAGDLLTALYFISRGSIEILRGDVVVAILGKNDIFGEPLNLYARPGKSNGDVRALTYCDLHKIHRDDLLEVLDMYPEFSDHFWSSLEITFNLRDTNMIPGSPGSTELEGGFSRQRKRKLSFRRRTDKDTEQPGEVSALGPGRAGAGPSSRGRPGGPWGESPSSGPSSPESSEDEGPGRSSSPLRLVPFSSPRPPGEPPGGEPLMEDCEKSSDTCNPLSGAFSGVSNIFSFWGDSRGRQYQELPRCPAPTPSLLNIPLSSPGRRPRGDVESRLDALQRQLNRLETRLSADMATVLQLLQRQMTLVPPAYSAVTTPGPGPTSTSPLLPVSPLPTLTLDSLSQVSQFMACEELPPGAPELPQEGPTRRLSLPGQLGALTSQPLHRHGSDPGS

SMILES: CN(C)CCNC(=O)c1ccc(-c2ccc(-c3ccc(Cl)cc3)n2-c2ccccc2C(F)(F)F)cc1 [Poloppin-II]
- activity against the hERG ion channel: inactive
